Test systems include RXF 393; SW-620; Hs-578T; HCT-15; SK-MEL-5; ACHN; NCI-H226; BT-549; SN12C; UACC-257; SF-268; MDA-MB-435; HOP-92; OVCAR-4; M14; A549; K562; SNB-19; SR; U-251.
Holding throughout (experiment): NCI-60 cell line screen, 48 h

Structures are written as SMILES.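 96-well plates; 48 h exposure; 5 concentrations. Endpoints by linear interpolation between flanking doses. Not reached: highest tested concentration assigned. GI50 = concentration required for 50% inhibition of growth.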 Calls of active or inactive are those of the source. Rule as the data show it: active = GI50 up to about 1.1 µM and inactive = higher.

For `COc1cc(C2c3cc4c(cc3OC(C)(N3CCCC3)C2C)OCO4)cc(OC)c1OC` (stereo not given), the GI50 in the assay with RXF 393 was 0.256 µM (active); in the assay on SW-620 it was 0.153 µM (active); in the assay on Hs-578T, 0.273 µM (active); in the assay with HCT-15, 0.472 µM; with SK-MEL-5 it was 0.247 µM (active); in the assay with ACHN, 0.815 µM (active). Further, the GI50 in the assay with NCI-H226 is 0.313 µM (active); with BT-549 it was 0.232 µM (active); in the assay with SN12C it was 0.446 µM (active); in the assay on UACC-257 it was 0.437 µM (active); in the assay with SF-268 it was 0.714 µM (active); in the assay with MDA-MB-435 it was 0.128 µM (active). Besides, the GI50 was 2.19 µM (inactive) in the assay with HOP-92; 9.48 µM (inactive) in the assay with OVCAR-4; 0.242 µM (active) in the assay with M14; 0.515 µM (active) with A549; 0.197 µM (active) in the assay with K562; 0.391 µM (active) with SNB-19. For the same molecule, the GI50 was 0.0931 µM (active) with SR and 0.385 µM (active) in the assay with U-251.
Turning to `CC/C(N)=N\NC(=O)OC(C)(C)C`, the GI50 in the assay with RXF 393 was > 100 µM (inactive); in the assay with SW-620, > 100 µM (inactive); with Hs-578T it was > 100 µM (inactive); with HCT-15 it was over 100 µM; in the assay on SK-MEL-5 it was > 100 µM (inactive); in the assay with ACHN, > 100 µM (inactive). Further, the GI50 in the assay with NCI-H226, with BT-549, with SN12C, in the assay on UACC-257, in the assay on SF-268 and with MDA-MB-435 was > 100 µM (inactive) in each case. Moreover, the GI50 in the assay on HOP-92, in the assay with OVCAR-4, in the assay on M14, in the assay with A549, in the assay with K562 and in the assay with SNB-19 was > 100 µM (inactive) throughout. The GI50 in the assay on SR and in the assay with U-251 was > 100 µM (inactive) each time.
With `COc1cc(OC)c2c(=O)cc(-c3ccccc3F)[nH]c2c1`, the GI50 with RXF 393 is 29.8 µM (inactive); in the assay with SW-620 it was 59.3 µM (inactive); in the assay on Hs-578T, > 100 µM (inactive); in the assay on HCT-15, 28.6 µM; in the assay with SK-MEL-5, 30.3 µM (inactive); in the assay with ACHN it was > 100 µM (inactive). Moreover, the GI50 in the assay on NCI-H226 is 23.7 µM (inactive); with BT-549 it was > 100 µM (inactive); in the assay with SN12C, > 100 µM (inactive); in the assay on UACC-257 it was > 100 µM (inactive); in the assay on SF-268 it was 39.2 µM (inactive); in the assay on MDA-MB-435 it was 8.38 µM (inactive). In addition, the GI50 in the assay with HOP-92 was > 100 µM (inactive); with OVCAR-4, 14.2 µM (inactive); with M14, 39.1 µM (inactive); with A549, 38.5 µM (inactive); with K562, 53.3 µM (inactive); with SNB-19, 26 µM (inactive). Besides, the values for the GI50 in the assay with SR and in the assay on U-251 were 60.8 µM (inactive) and 35.8 µM (inactive), respectively.
In the case of `Oc1cccc(/C=N/N=c2/[nH][nH]/c(=N/N=C/c3cccc(O)c3)c3ccccc23)c1`, the GI50 was 49.2 µM (inactive) in the assay on RXF 393; 14.6 µM (inactive) with SW-620; 18.7 µM (inactive) with Hs-578T; 11 µM in the assay with HCT-15; 0.933 µM (active) in the assay on SK-MEL-5; 14.3 µM (inactive) in the assay on ACHN. Also, the GI50 in the assay on NCI-H226 was 14.5 µM (inactive); in the assay on BT-549, 18.5 µM (inactive); in the assay with SN12C it was 11.6 µM (inactive); with UACC-257, 29.9 µM (inactive); in the assay on SF-268 it was 26.6 µM (inactive); in the assay with MDA-MB-435, 22.9 µM (inactive). For the same molecule, the GI50 with HOP-92 is 15.9 µM (inactive); in the assay on OVCAR-4 it was 17.4 µM (inactive); in the assay on M14, 21.7 µM (inactive); with A549, 21.4 µM (inactive); with K562 it was 18.3 µM (inactive); in the assay on SNB-19 it was 24.4 µM (inactive). Moreover, the GI50 in the assay with SR was 2.55 µM (inactive); in the assay with U-251, 13.3 µM (inactive).
`COc1cc2c(c(O)c1OC)C(=O)C1CCC(=O)N1C2c1cccc2ccccc12` (stereo not given): the GI50 in the assay on RXF 393 is 21.4 µM (inactive); in the assay with SW-620, 39.7 µM (inactive); in the assay with Hs-578T, 82.6 µM (inactive); in the assay on HCT-15, 41.3 µM; with SK-MEL-5 it was 31.6 µM (inactive); in the assay on ACHN, 28.9 µM (inactive). The GI50 in the assay with NCI-H226 is > 100 µM (inactive); in the assay on BT-549 it was 45 µM (inactive); with SN12C, 77.4 µM (inactive); in the assay with UACC-257 it was 30.1 µM (inactive); in the assay with SF-268, 57.8 µM (inactive); with MDA-MB-435, 44.5 µM (inactive). Further, the GI50 was 19.3 µM (inactive) in the assay on HOP-92; 47.4 µM (inactive) in the assay on OVCAR-4; 51.4 µM (inactive) with M14; 28.8 µM (inactive) in the assay with A549; 18.9 µM (inactive) in the assay on K562; 41.9 µM (inactive) in the assay with SNB-19. The GI50 with SR is 26.5 µM (inactive); in the assay on U-251, 37.4 µM (inactive).
Consider `CC(=O)NC(=N/N=C1/C(=O)Nc2ccc(C)cc21)NC(C)=O`, for which the GI50 is 68.1 µM (inactive) in the assay on RXF 393; > 100 µM (inactive) in the assay with SW-620; > 100 µM (inactive) in the assay with Hs-578T; over 100 µM in the assay on HCT-15; > 100 µM (inactive) with SK-MEL-5; > 100 µM (inactive) in the assay on ACHN. In addition, the GI50 is 98.2 µM (inactive) with NCI-H226; > 100 µM (inactive) in the assay on BT-549; > 100 µM (inactive) in the assay with SN12C; > 100 µM (inactive) in the assay with UACC-257; > 100 µM (inactive) in the assay with SF-268; > 100 µM (inactive) in the assay on MDA-MB-435. Moreover, the GI50 in the assay with HOP-92, with OVCAR-4, in the assay with M14, with A549, in the assay with K562 and in the assay with SNB-19 was > 100 µM (inactive) throughout. The GI50 with SR and in the assay on U-251 was > 100 µM (inactive) in each case.
`Cc1cc(=O)oc2cc3oc(N(C)c4ccccc4)nc(=O)c3cc12`: the GI50 was > 100 µM (inactive) in the assay on RXF 393; > 100 µM (inactive) in the assay on SW-620; 46.7 µM (inactive) with Hs-578T; over 100 µM in the assay on HCT-15; > 100 µM (inactive) in the assay on SK-MEL-5; > 100 µM (inactive) with ACHN. The GI50 with NCI-H226 was > 100 µM (inactive); in the assay with BT-549, 50.2 µM (inactive); in the assay with SN12C, > 100 µM (inactive); in the assay with UACC-257 it was > 100 µM (inactive); in the assay on SF-268, 40.9 µM (inactive); in the assay with MDA-MB-435, > 100 µM (inactive). In addition, the GI50 was 22.7 µM (inactive) in the assay on HOP-92; > 100 µM (inactive) in the assay with OVCAR-4; > 100 µM (inactive) in the assay with M14; > 100 µM (inactive) in the assay on A549; > 100 µM (inactive) in the assay with K562; 67.9 µM (inactive) in the assay with SNB-19. Besides, the GI50 was 82.2 µM (inactive) with SR and 56 µM (inactive) with U-251.
As for `CCN(CC)CCNc1ccc2ncn3c4ccc(OC)cc4c(=O)c1c23`, the GI50 with RXF 393 was 2.23 µM (inactive); in the assay on SW-620 it was 1.36 µM (inactive); in the assay with Hs-578T, 11.1 µM (inactive); with HCT-15 it was 1.57 µM; with SK-MEL-5, 6.07 µM (inactive); with ACHN, 1.05 µM (active). The GI50 was 4.31 µM (inactive) with NCI-H226; 16.3 µM (inactive) with BT-549; 2.14 µM (inactive) in the assay with SN12C; 11.9 µM (inactive) with UACC-257; 2.21 µM (inactive) in the assay with SF-268; 5.21 µM (inactive) in the assay on MDA-MB-435. Besides, the GI50 with HOP-92 was 4.75 µM (inactive); in the assay on OVCAR-4, 1.74 µM (inactive); in the assay on M14 it was 5.21 µM (inactive); with A549, 2.91 µM (inactive); with K562 it was 2.75 µM (inactive); in the assay on SNB-19, 3.76 µM (inactive). The GI50 in the assay on SR was 1.85 µM (inactive); in the assay on U-251, 1.38 µM (inactive).
Take `COc1ccc(-n2c(SC(CN3CCOCC3)CN3CCCC3=O)nc3ccccc3c2=O)cc1` (stereo not given): the GI50 in the assay on RXF 393 was > 100 µM (inactive); in the assay with SW-620, > 100 µM (inactive); in the assay with Hs-578T, > 100 µM (inactive); in the assay on HCT-15 it was over 100 µM; with SK-MEL-5, > 100 µM (inactive); in the assay with ACHN it was 46 µM (inactive). For the same molecule, the GI50 in the assay on NCI-H226 is 40.8 µM (inactive); with BT-549, > 100 µM (inactive); with SN12C it was > 100 µM (inactive); in the assay with UACC-257, > 100 µM (inactive); with SF-268, > 100 µM (inactive); in the assay on MDA-MB-435, > 100 µM (inactive). The GI50 with HOP-92 is > 100 µM (inactive); with OVCAR-4, 98.6 µM (inactive); with M14, > 100 µM (inactive); in the assay with A549 it was 87.7 µM (inactive); with K562 it was > 100 µM (inactive); with SNB-19, > 100 µM (inactive). Besides, the GI50 with SR and with U-251 was > 100 µM (inactive) in each case.
Take `COc1ccc(CNc2nc(NCc3ccc(OC)cc3)nc(Nc3ccccc3)n2)cc1`: the GI50 was > 100 µM (inactive) in the assay with RXF 393; 6.46 µM (inactive) in the assay with SW-620; 30.1 µM (inactive) in the assay on Hs-578T; 3.39 µM in the assay on HCT-15; 8.57 µM (inactive) in the assay on SK-MEL-5; 13.1 µM (inactive) in the assay on ACHN. For the same molecule, the GI50 was 64.4 µM (inactive) in the assay with NCI-H226; > 100 µM (inactive) in the assay with BT-549; 46 µM (inactive) with SN12C; 35.1 µM (inactive) in the assay with UACC-257; > 100 µM (inactive) in the assay on SF-268; 2.22 µM (inactive) in the assay on MDA-MB-435. Besides, the GI50 is > 100 µM (inactive) in the assay on HOP-92; 8.87 µM (inactive) with OVCAR-4; 45.7 µM (inactive) with M14; 9.86 µM (inactive) in the assay on A549; 5 µM (inactive) in the assay with K562; 17.8 µM (inactive) with SNB-19. Further, the figures for the GI50 in the assay with SR and with U-251 were 1.11 µM (active) and 16.7 µM (inactive), respectively.

For the origin of these results see ChEMBL document CHEMBL1201862, “PubChem BioAssay data set” (2004).
